# Data from ChEMBL document CHEMBL1201862, “PubChem BioAssay data set” (2004).
# The source made the active and inactive calls.
# Target: T1, Corticotropin-releasing factor receptor 2/Corticotropin-releasing factor-binding protein (Homo sapiens, UniProt P24387+Q13324)
# T1 sequence (Q13324 whole entry): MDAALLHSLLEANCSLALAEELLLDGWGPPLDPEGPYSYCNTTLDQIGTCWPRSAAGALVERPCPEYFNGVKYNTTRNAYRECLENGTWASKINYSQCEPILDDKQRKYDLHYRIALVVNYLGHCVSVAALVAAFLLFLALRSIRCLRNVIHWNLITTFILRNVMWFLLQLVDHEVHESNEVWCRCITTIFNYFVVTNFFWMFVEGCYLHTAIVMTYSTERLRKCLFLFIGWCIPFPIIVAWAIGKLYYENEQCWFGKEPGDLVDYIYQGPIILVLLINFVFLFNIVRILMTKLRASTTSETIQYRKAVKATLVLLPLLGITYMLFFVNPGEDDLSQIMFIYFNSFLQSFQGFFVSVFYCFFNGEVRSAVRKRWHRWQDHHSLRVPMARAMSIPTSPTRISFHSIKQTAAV
# T1 sequence (P24387 whole entry): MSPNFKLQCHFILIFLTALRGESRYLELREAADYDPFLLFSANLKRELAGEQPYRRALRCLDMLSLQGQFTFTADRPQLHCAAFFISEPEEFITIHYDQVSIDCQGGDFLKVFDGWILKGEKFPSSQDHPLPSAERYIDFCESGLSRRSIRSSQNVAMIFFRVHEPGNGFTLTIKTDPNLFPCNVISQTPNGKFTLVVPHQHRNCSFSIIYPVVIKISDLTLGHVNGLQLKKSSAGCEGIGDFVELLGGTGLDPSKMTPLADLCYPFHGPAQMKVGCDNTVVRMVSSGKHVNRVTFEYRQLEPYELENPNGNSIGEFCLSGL
# Assay: activators of CRF receptor 2 with binding protein – uHTS hits, confirmation (AID 602473)
# Assay type: functional
# Details: read-out: EC50_Mean
row,SMILES,EC50
1,COCCn1c(-c2ccccc2)cs/c1=N\c1cccnc1,> 53 µM (inactive)
2,CSc1nc2cc(Cl)ccc2s1,> 53 µM (inactive)
3,COC(=O)c1ccc(NC(=O)COC(=O)CSc2nc(C)cc(C)n2)cc1,> 53 µM (inactive)
4,Cc1ccn(C(=O)c2ccc(NC(=O)C3CCCCC3)cc2)n1,> 53 µM (inactive)
5,COc1ccc(C(C(=O)NC2CCCCC2)N(Cc2cccs2)C(=O)Cc2c[nH]c3ccccc23)cc1OC (stereo not drawn),> 53 µM (inactive)
6,C=C(C)CSc1nc2c(cc1C#N)CCC2,> 53 µM (inactive)
7,CC1CCN(C(=O)C2CCN(S(=O)(=O)c3cccnc3)CC2)CC1,> 53 µM (inactive)

# System: H9c2;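 further: confirmatory concentration-response retest of ultra-high-throughput screening hits for modulation of myocardial damage; cell death induced by hydrogen peroxide oxidative stress; compound pretreatment for 60 min then peroxide exposure for 2 h; potency is for protecting the cells against peroxide damage rather than for killing them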
# Assay: cells
# Assay type: functional, cell-based
# Details: Rattus norvegicus, H9c2, Myocardium
row,SMILES,IC50
1,C[C@]12CC[C@H]3[C@@H](CC[C@H]4C[C@@H](O)CC[C@@]43C)[C@@H]1C[C@@H](O)C2,> 79 µM (inactive)
2,CCCCNC(=O)c1cn(-c2ccc(OCC)cc2)c(=O)c2cc(OC)c(OC)cc12,15.3 µM (active)
3,CN(CC(=O)Nc1cccc(F)c1)C(=O)Cc1nnc(O)c2ccccc12,25.6 µM (active)
4,CCO/C(O)=C1\C(C)=NC(C)=C(C(=O)OCCNC(=O)c2cccnc2)C1c1cccc([N+](=O)[O-])c1 (stereo not drawn),> 79 µM (inactive)
5,COc1ccc(N/C=C(\C#N)c2nc3ccccc3n2C)c(OC)c1,> 79 µM (inactive)
6,CCN(C[C@H]1N[C@@](Cc2ccccc2)(C(=O)OC)[C@H]2C(=O)N(C)C(=O)[C@@H]12)S(=O)(=O)c1ccc(OC)cc1,7.53 µM (active)
7,Cc1ccc(C(=O)Oc2ccc(Cl)c3cccnc23)cc1[N+](=O)[O-],> 79 µM (inactive)
8,COc1ccc(C(C(=O)NC2CCCCC2)N(Cc2cccs2)C(=O)Cc2c[nH]c3ccccc23)cc1OC (stereo not drawn),> 79 µM (inactive)
9,Cc1cccc(NC(=O)c2[nH]cnc2C(=O)NCCCCCCNC(=O)c2nc[nH]c2C(=O)Nc2cccc(C)c2)c1,14.4 µM (active)
10,O=C(NCCN1CCOCC1)c1cnn2c(-c3ccccc3)cc(-c3ccccc3)nc12,> 79 µM (inactive)
11,COc1ccc2nc(O)c(CN(CC3CCCO3)S(=O)(=O)c3ccccc3F)cc2c1 (stereo not drawn),15.5 µM (active)
12,Cc1c(C#N)c(N)nc2c3c(sc12)NC(=O)CC3c1ccccc1 (stereo not drawn),32.6 µM (inactive)
13,O=C(COC(=O)Cn1[nH]c(=O)c2ccccc2c1=O)Nc1ncc(Cl)cc1Cl,> 79 µM (inactive)

# Target: T1, Corticotropin-releasing factor receptor 2/Corticotropin-releasing factor-binding protein
# Assay: Dose Response confirmation of uHTS hits for small molecule antagonists of the CRF-binding protein and CRF-R2 receptor complex.
# Assay type: functional
# Details: read-out: IC50_Mean
row,SMILES,IC50
1,COCCn1c(-c2ccccc2)cs/c1=N\c1cccnc1,22.3 µM (active)
2,CSc1nc2cc(Cl)ccc2s1,> 47.1 µM (inactive)
3,COC(=O)c1ccc(NC(=O)COC(=O)CSc2nc(C)cc(C)n2)cc1,> 47.1 µM (inactive)
4,Cc1ccn(C(=O)c2ccc(NC(=O)C3CCCCC3)cc2)n1,> 47.1 µM (inactive)
5,COc1ccc(C(C(=O)NC2CCCCC2)N(Cc2cccs2)C(=O)Cc2c[nH]c3ccccc23)cc1OC (stereo not drawn),> 47.1 µM (inactive)
6,C=C(C)CSc1nc2c(cc1C#N)CCC2,> 47.1 µM (inactive)
7,CC1CCN(C(=O)C2CCN(S(=O)(=O)c3cccnc3)CC2)CC1,> 47.1 µM (inactive)

# Target: T2, Streptokinase A (Streptococcus pyogenes serotype M1, UniProt P10520)
# T2 sequence (P10520 whole entry): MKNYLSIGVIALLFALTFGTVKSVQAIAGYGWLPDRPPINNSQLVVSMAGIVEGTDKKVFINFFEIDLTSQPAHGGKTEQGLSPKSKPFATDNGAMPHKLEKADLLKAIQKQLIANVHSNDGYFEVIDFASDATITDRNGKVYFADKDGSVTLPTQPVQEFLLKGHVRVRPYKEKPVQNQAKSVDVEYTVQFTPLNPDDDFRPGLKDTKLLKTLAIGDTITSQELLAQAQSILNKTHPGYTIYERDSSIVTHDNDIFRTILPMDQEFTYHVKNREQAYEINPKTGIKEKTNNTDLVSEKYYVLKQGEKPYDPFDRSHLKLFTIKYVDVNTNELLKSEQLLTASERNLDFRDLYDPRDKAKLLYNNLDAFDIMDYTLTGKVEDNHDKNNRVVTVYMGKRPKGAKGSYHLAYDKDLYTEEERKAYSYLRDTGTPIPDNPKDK
# Assay: viability-normalized secreted streptokinase activity reduction – plasminogen activation absorbance, OD405, dose response (AID 1914);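 further: secreted streptokinase activity via plasminogen activation per viability signal from cell pellet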
# Assay type: functional, Streptococcus pyogenes M1 GAS
# Details: not given
row,SMILES,EC50
1,O=C(Nc1ccc(F)cc1)c1nc2c(nnn2Cc2cccc3ccccc23)c(=O)[nH]1,> 150 µM (not active)
